From US20260022142A1, “MACROCYCLIC IMMUNOMODULATORS” (Bristol-Myers Squibb Company, priority 2022, published 2026)
Bridge positions count the residues as written; N and C are the ends. Square brackets hold non-standard residues; d marks the D form. Peptide text beside a SMILES is read from it. * marks the point of attachment. ξ: configuration not given here. Bip = N[C@@H](Cc1ccc(-c2ccccc2)cc1)C(=O)O; Phe(3-Me) = Cc1cccc(C[C@H](N)C(=O)O)c1; Cha = N[C@@H](CC1CCCCC1)C(=O)O; dOrn = NCCC[C@@H](N)C(=O)O; dDab = NCC[C@@H](N)C(=O)O; Carboxymethyl = O=C(O)C*; Orn = NCCC[C@H](N)C(=O)O; dDap = NC[C@@H](N)C(=O)O; Aun = NCCCCCCCCCCC(=O)O; Dab = NCC[C@H](N)C(=O)O; Dap = NC[C@H](N)C(=O)O; ξC = NC(CS)C(=O)O

Target: T1, PD-1/PD-L1 interaction (PE-labeled human PD-L1-Ig binding to Jurkat cell line over-expressing human PD-1) (Homo sapiens, UniProt Q15116)
T1 construct: expressed in transfected cells; host or cells: Jurkat
Test: Jurkat-PD-1 Cell Binding High-Content Screening Assay (CBA)
Type: cell-based
Conditions: Jurkat cell line over-expressing human PD-1; PE-labeled PD-L1-Ig 20 nM final; read-out: Jurkat hPD1-PDL1 IC50
Method in brief: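 Jurkat-hPD-1 cells, DMEM/10% FCS; cpd 2 h 37° C; PE-PD-L1-Ig 20 nM final, 1 h; 4% PFA fix + Hoechst 33342, 3× dPBS wash; high-content imaging read-out.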

T1 sequence (Q15116 25-288): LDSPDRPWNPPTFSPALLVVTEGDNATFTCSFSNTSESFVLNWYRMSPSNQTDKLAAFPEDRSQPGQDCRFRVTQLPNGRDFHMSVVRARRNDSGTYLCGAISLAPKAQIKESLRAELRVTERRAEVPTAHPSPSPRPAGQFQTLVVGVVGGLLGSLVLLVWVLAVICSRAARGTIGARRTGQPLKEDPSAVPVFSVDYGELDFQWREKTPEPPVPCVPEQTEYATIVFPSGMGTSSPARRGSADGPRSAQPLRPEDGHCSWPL

Compound	IC50
Cc1cccc(C[C@@H]2NC(=O)[C@H](CC(=O)O)NC(=O)[C@H](Cc3ccc(OCC(=O)O)cc3)NC(=O)[C@H](CN)NC(=O)CSC[C@@H](C(=O)N[C@@H](CCCCN)C(=O)NCCCCCCCCCCC(=O)O)NC(=O)[C@H]([C@@H](C)O)NC(=O)[C@H](C(C)C)NC(=O)[C@H](CC3CCCCC3)NC(=O)[C@H](Cc3cnc[nH]3)NC(=O)[C@@H](CC(C)C)NC(=O)[C@H](CCCN)NC(=O)[C@H](C(C)C)NC(=O)[C@H](Cc3ccc(-c4ccccc4)cc3)NC(=O)[C@H](C(C)C)NC2=O)c1 [Compound 1110] ({CH2CO}-[Dap]Y(Carboxymethyl)D[Phe(3-Me)]V[Bip]V[Orn][dL]H[Cha]VTCK[Aun]-OH; thioether N-14)	33 nM
Cc1cccc(C[C@@H]2NC(=O)[C@H](CC(=O)O)NC(=O)[C@H](Cc3ccc(OCC(=O)O)cc3)NC(=O)[C@H](CN)NC(=O)CSC[C@@H](C(=O)N[C@@H](C)C(=O)N[C@@H](CN)C(=O)NCCCCCCCCCCC(=O)O)NC(=O)[C@H]([C@@H](C)O)NC(=O)[C@H](C(C)C)NC(=O)[C@H](CC3CCCCC3)NC(=O)[C@H](Cc3cnc[nH]3)NC(=O)[C@@H](CC(C)C)NC(=O)[C@H](CCCN)NC(=O)[C@H](C(C)C)NC(=O)[C@H](Cc3ccc(-c4ccccc4)cc3)NC(=O)[C@H](C(C)C)NC2=O)c1 [Compound 1111] ({CH2CO}-[Dap]Y(Carboxymethyl)D[Phe(3-Me)]V[Bip]V[Orn][dL]H[Cha]VTCA[Dap][Aun]-OH; thioether N-14)	64.2 nM
Cc1cccc(C[C@@H]2NC(=O)[C@H](CC(=O)O)NC(=O)[C@H](Cc3ccc(OCC(=O)O)cc3)NC(=O)[C@H](CN)NC(=O)CSC[C@@H](C(=O)N[C@@H](C)C(=O)N[C@@H](CCN)C(=O)NCCCCCCCCCCC(=O)O)NC(=O)[C@H]([C@@H](C)O)NC(=O)[C@H](C(C)C)NC(=O)[C@H](CC3CCCCC3)NC(=O)[C@H](Cc3cnc[nH]3)NC(=O)[C@@H](CC(C)C)NC(=O)[C@H](CCCN)NC(=O)[C@H](C(C)C)NC(=O)[C@H](Cc3ccc(-c4ccccc4)cc3)NC(=O)[C@H](C(C)C)NC2=O)c1 [Compound 1112] ({CH2CO}-[Dap]Y(Carboxymethyl)D[Phe(3-Me)]V[Bip]V[Orn][dL]H[Cha]VTCA[Dab][Aun]-OH; thioether N-14)	18.2 nM
Cc1cccc(C[C@@H]2NC(=O)[C@H](CC(=O)O)NC(=O)[C@H](Cc3ccc(OCC(=O)O)cc3)NC(=O)[C@H](CN)NC(=O)CSC[C@@H](C(=O)N[C@@H](C)C(=O)N[C@@H](CCCN)C(=O)NCCCCCCCCCCC(=O)O)NC(=O)[C@H]([C@@H](C)O)NC(=O)[C@H](C(C)C)NC(=O)[C@H](CC3CCCCC3)NC(=O)[C@H](Cc3cnc[nH]3)NC(=O)[C@@H](CC(C)C)NC(=O)[C@H](CCCN)NC(=O)[C@H](C(C)C)NC(=O)[C@H](Cc3ccc(-c4ccccc4)cc3)NC(=O)[C@H](C(C)C)NC2=O)c1 [Compound 1113] ({CH2CO}-[Dap]Y(Carboxymethyl)D[Phe(3-Me)]V[Bip]V[Orn][dL]H[Cha]VTCA[Orn][Aun]-OH; thioether N-14)	30.2 nM
CC(C)C[C@H]1NC(=O)[C@H](CCCN)NC(=O)[C@H](C(C)C)NC(=O)[C@H](Cc2ccc(-c3ccccc3)cc2)NC(=O)[C@H](C(C)C)NC(=O)[C@H](Cc2c[nH]c3ccccc23)NC(=O)[C@H](CC(=O)O)NC(=O)[C@H](Cc2ccc(OCC(=O)O)cc2)NC(=O)[C@H](CN)NC(=O)CSC[C@@H](C(=O)N[C@@H](C)C(=O)N[C@@H](CO)C(=O)NCCCCCCCCCCC(=O)O)NC(=O)[C@H]([C@@H](C)O)NC(=O)[C@H](C(C)C)NC(=O)[C@H](CC2CCCCC2)NC(=O)[C@H](Cc2cnc[nH]2)NC1=O [Compound 1114] ({CH2CO}-[Dap]Y(Carboxymethyl)DWV[Bip]V[Orn][dL]H[Cha]VTCAS[Aun]-OH; thioether N-14)	61 nM
Cc1cccc(C[C@@H]2NC(=O)[C@H](CC(=O)O)NC(=O)[C@H](Cc3ccc(OCC(=O)O)cc3)NC(=O)[C@H](CN)NC(=O)CSC[C@@H](C(=O)N[C@@H](C)C(=O)N[C@@H](CO)C(=O)NCCCCCCCCCCC(=O)O)NC(=O)[C@H]([C@@H](C)O)NC(=O)[C@H](C(C)C)NC(=O)[C@H](CC3CCCCC3)NC(=O)[C@H](Cc3cnc[nH]3)NC(=O)[C@@H](CC(C)C)NC(=O)[C@H](CCCN)NC(=O)[C@H](C(C)C)NC(=O)[C@H](Cc3ccc(-c4ccccc4)cc3)NC(=O)[C@H](C(C)C)NC2=O)c1 [Compound 1115] ({CH2CO}-[Dap]Y(Carboxymethyl)D[Phe(3-Me)]V[Bip]V[Orn][dL]H[Cha]VTCAS[Aun]-OH; thioether N-14)	26 nM

Results, then the molecule that gave them:

IC50	Compound
37.6 nM	CC(C)C[C@H]1NC(=O)[C@H](CCCN)NC(=O)[C@H](C(C)C)NC(=O)[C@H](Cc2ccc(-c3ccccc3)cc2)NC(=O)[C@H](C(C)C)NC(=O)[C@H](Cc2c[nH]c3ccccc23)NC(=O)[C@H](CC(=O)O)NC(=O)[C@H](Cc2ccc(OCC(=O)O)cc2)NC(=O)[C@H](CN)NC(=O)CSCC(C(=O)N[C@H](C)C(=O)NCCCCCCCCCCC(=O)O)NC(=O)[C@H]([C@@H](C)O)NC(=O)[C@H](C(C)C)NC(=O)[C@H](CC2CCCCC2)NC(=O)[C@H](Cc2cnc[nH]2)NC1=O (some centres unmarked) [Compound 1116]
48.4 nM	CC(C)C[C@H]1NC(=O)[C@H](CCCN)NC(=O)[C@H](C(C)C)NC(=O)[C@H](Cc2ccc(-c3ccccc3)cc2)NC(=O)[C@H](C(C)C)NC(=O)[C@H](Cc2c[nH]c3ccccc23)NC(=O)[C@H](CC(=O)O)NC(=O)[C@H](Cc2ccc(OCC(=O)O)cc2)NC(=O)[C@H](CN)NC(=O)CSCC(C(=O)N[C@H](CN)C(=O)NCCCCCCCCCCC(=O)O)NC(=O)[C@H]([C@@H](C)O)NC(=O)[C@H](C(C)C)NC(=O)[C@H](CC2CCCCC2)NC(=O)[C@H](Cc2cnc[nH]2)NC1=O (stereo partly drawn) [Compound 1117] ({CH2CO}-[Dap]Y(Carboxymethyl)DWV[Bip]V[Orn][dL]H[Cha]VT[ξC][dDap][Aun]-OH; thioether N-14)
30.7 nM	CC(C)C[C@H]1NC(=O)[C@H](CCCN)NC(=O)[C@H](C(C)C)NC(=O)[C@H](Cc2ccc(-c3ccccc3)cc2)NC(=O)[C@H](C(C)C)NC(=O)[C@H](Cc2c[nH]c3ccccc23)NC(=O)[C@H](CC(=O)O)NC(=O)[C@H](Cc2ccc(OCC(=O)O)cc2)NC(=O)[C@H](CN)NC(=O)CSCC(C(=O)N[C@H](CCN)C(=O)NCCCCCCCCCCC(=O)O)NC(=O)[C@H]([C@@H](C)O)NC(=O)[C@H](C(C)C)NC(=O)[C@H](CC2CCCCC2)NC(=O)[C@H](Cc2cnc[nH]2)NC1=O (stereo partly drawn) [Compound 1118] ({CH2CO}-[Dap]Y(Carboxymethyl)DWV[Bip]V[Orn][dL]H[Cha]VT[ξC][dDab][Aun]-OH; thioether N-14)
57.5 nM	CC(C)C[C@H]1NC(=O)[C@H](CCCN)NC(=O)[C@H](C(C)C)NC(=O)[C@H](Cc2ccc(-c3ccccc3)cc2)NC(=O)[C@H](C(C)C)NC(=O)[C@H](Cc2c[nH]c3ccccc23)NC(=O)[C@H](CC(=O)O)NC(=O)[C@H](Cc2ccc(OCC(=O)O)cc2)NC(=O)[C@H](CN)NC(=O)CSCC(C(=O)N[C@H](CCCN)C(=O)NCCCCCCCCCCC(=O)O)NC(=O)[C@H]([C@@H](C)O)NC(=O)[C@H](C(C)C)NC(=O)[C@H](CC2CCCCC2)NC(=O)[C@H](Cc2cnc[nH]2)NC1=O (stereo partly drawn) [Compound 1119] ({CH2CO}-[Dap]Y(Carboxymethyl)DWV[Bip]V[Orn][dL]H[Cha]VT[ξC][dOrn][Aun]-OH; thioether N-14)
40.9 nM	CC(C)C[C@H]1NC(=O)[C@H](CCCN)NC(=O)[C@H](C(C)C)NC(=O)[C@H](Cc2ccc(-c3ccccc3)cc2)NC(=O)[C@H](C(C)C)NC(=O)[C@H](Cc2c[nH]c3ccccc23)NC(=O)[C@H](CC(=O)O)NC(=O)[C@H](Cc2ccc(OCC(=O)O)cc2)NC(=O)[C@H](CN)NC(=O)CSCC(C(=O)N[C@H](CCCCN)C(=O)NCCCCCCCCCCC(=O)O)NC(=O)[C@H]([C@@H](C)O)NC(=O)[C@H](C(C)C)NC(=O)[C@H](CC2CCCCC2)NC(=O)[C@H](Cc2cnc[nH]2)NC1=O (stereo partly drawn) [Compound 1120] ({CH2CO}-[Dap]Y(Carboxymethyl)DWV[Bip]V[Orn][dL]H[Cha]VT[ξC][dK][Aun]-OH; thioether N-14)
27.4 nM	CC(C)C[C@H]1NC(=O)[C@H](CCCN)NC(=O)[C@H](C(C)C)NC(=O)[C@H](Cc2ccc(-c3ccccc3)cc2)NC(=O)[C@H](C(C)C)NC(=O)[C@H](Cc2c[nH]c3ccccc23)NC(=O)[C@H](CC(=O)O)NC(=O)[C@H](Cc2ccc(OCC(=O)O)cc2)NC(=O)[C@H](CN)NC(=O)CSCC(C(=O)N[C@H](CC(=O)O)C(=O)NCCCCCCCCCCC(=O)O)NC(=O)[C@H]([C@@H](C)O)NC(=O)[C@H](C(C)C)NC(=O)[C@H](CC2CCCCC2)NC(=O)[C@H](Cc2cnc[nH]2)NC1=O (stereo partly drawn) [Compound 1121] ({CH2CO}-[Dap]Y(Carboxymethyl)DWV[Bip]V[Orn][dL]H[Cha]VT[ξC][dD][Aun]-OH; thioether N-14)
42.4 nM	CC(C)C[C@H]1NC(=O)[C@H](CCCN)NC(=O)[C@H](C(C)C)NC(=O)[C@H](Cc2ccc(-c3ccccc3)cc2)NC(=O)[C@H](C(C)C)NC(=O)[C@H](Cc2c[nH]c3ccccc23)NC(=O)[C@H](CC(=O)O)NC(=O)[C@H](Cc2ccc(OCC(=O)O)cc2)NC(=O)[C@H](CN)NC(=O)CSCC(C(=O)N[C@H](CCC(=O)O)C(=O)NCCCCCCCCCCC(=O)O)NC(=O)[C@H]([C@@H](C)O)NC(=O)[C@H](C(C)C)NC(=O)[C@H](CC2CCCCC2)NC(=O)[C@H](Cc2cnc[nH]2)NC1=O (stereo partly drawn) [Compound 1122] ({CH2CO}-[Dap]Y(Carboxymethyl)DWV[Bip]V[Orn][dL]H[Cha]VT[ξC][dE][Aun]-OH; thioether N-14)
48.4 nM	CC(C)C[C@H]1NC(=O)[C@H](CCCN)NC(=O)[C@H](C(C)C)NC(=O)[C@H](Cc2ccc(-c3ccccc3)cc2)NC(=O)[C@H](C(C)C)NC(=O)[C@H](Cc2c[nH]c3ccccc23)NC(=O)[C@H](CC(=O)O)NC(=O)[C@H](Cc2ccc(OCC(=O)O)cc2)NC(=O)[C@H](CN)NC(=O)CSCC(C(=O)N[C@H](CO)C(=O)NCCCCCCCCCCC(=O)O)NC(=O)[C@H]([C@@H](C)O)NC(=O)[C@H](C(C)C)NC(=O)[C@H](CC2CCCCC2)NC(=O)[C@H](Cc2cnc[nH]2)NC1=O (stereo partly drawn) [Compound 1123] ({CH2CO}-[Dap]Y(Carboxymethyl)DWV[Bip]V[Orn][dL]H[Cha]VT[ξC][dS][Aun]-OH; thioether N-14)
